# Measurements taken from US20090017103A1, “Antisense oligonucleotides for prevention of metastasis formation of cancer cells” (priority 2003, published 2009).
# “And” between values parts separate entries of the source, which are not always exact repeats. Equal entries are not always repeated. “Also recorded” adds a separate entry of the source. Marks after values point to notes of the source that are not given here.
# Key:
# [1] = test system: MDA-MB-231 breast cancer cells; experiment: Clonogenicity assay (colony formation); format: cell-based, human; settings: for inhibition of colony formation (colony growth inhibition): single exposure
# Outline: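 MDA-MB-231 cells given lipofectamine-complexed ASO (5, 10 or 20 μM, 12 h) and/or ErPC3 (10, 14, 20 μM, 24 h), singly or in sequential cycles, then grown 48-72 h. 5000 cells plated in methylcellulose/30% FBS; MTT-stained colonies (≥30 cells) counted after 5-7 days.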
# [2] = test system: MDA-MB-231^GFP cells; experiment: In vivo treatment with mini-osmotic pumps (osteolytic bone metastasis model);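 on Mean size of lesion: mean lesion size in relative units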;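 on Size of lesion (per animal): lesion size in relative units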; set-up: species or system nude rats; settings: for X-ray scan of hind legs: lytic lesions (in words): FIG. 5-7; for T/C: vs NSO control; for T/C × 100: mean lesion size vs NSO control rats; for Incidence of metastasis: mini-osmotic pumps s.c., 7 mg/kg daily over four weeks
# [3] = test system: MDA-MB-231^GFP cells; experiment: In vivo model with pretreated MDA-MB-231^GFP cells (osteolytic bone metastasis); set-up: species or system nude rats; lesion size of the rat(s) that developed lytic metastasis, % of control / lesion sizes with respect to all animals of the group compared to untreated control / lesion size of individual animal compared to the untreated control / T/C % (mean lesion size compared to untreated control): concentration or dose not given beside the values; settings: for T/C × 100: mean lesion size vs untreated control rats; for rats in which formation of osteolytic metastasis was inhibited (no visible metastasis): cells pre-exposed to ASO, observation period of eight weeks; for Incidence of metastasis: cells pretreated in vitro (10 μM);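 on Mean size of lesion: mean lesion size in relative units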
# [4] = observation period 8 weeks, pretreated cells
# [5] = pretreated cells, after eight weeks
# [6] = pretreated cells, after four weeks
substance,measurement,setting,value
5′-GCT-TTC-TTC-GTT-TTC-ATT-TC-3′ [ASO-BSPII-6],% Control,"[1]; Exp. III a, repeated exposure 2 × 5 μM",91%
same,Mean colony no.,"[1]; Exp. III a, repeated exposure 2 × 5 μM, control 456","415^6,8)"
same,% Control,"[1]; Exp. III a, repeated exposure 2 × 10 μM",82%
same,Mean colony no.,"[1]; Exp. III a, repeated exposure 2 × 10 μM, control 456",373^8)
same,% Control,"[1]; Exp. III a, repeated exposure 2 × 20 μM",72%
same,Mean colony no.,"[1]; Exp. III a, repeated exposure 2 × 20 μM, control 456",326^8)
same,% Control,"[1]; Experiment I, single treatment, 5 μM",89%
same,Mean colony no.,"[1]; Experiment I, single treatment, 5 μM, control 778",692^6)
same,% Control,"[1]; Experiment I, single treatment, 10 μM",81%
same,Mean colony no.,"[1]; Experiment I, single treatment, 10 μM, control 778",632^7)
same,% Control,"[1]; Experiment I, single treatment, 20 μM",61%
same,Mean colony no.,"[1]; Experiment I, single treatment, 20 μM, control 778",478
same,% Control,"[1]; Experiment III b, repeated exposure 2 × 5 μM",70%
same,Mean colony no.,"[1]; Experiment III b, repeated exposure 2 × 5 μM, control 517","363^6,8)"
same,% Control,"[1]; Experiment III b, repeated exposure 2 × 10 μM",55%
same,Mean colony no.,"[1]; Experiment III b, repeated exposure 2 × 10 μM, control 517",282^8)
same,% Control,"[1]; Experiment III b, repeated exposure 2 × 20 μM",49%
same,Mean colony no.,"[1]; Experiment III b, repeated exposure 2 × 20 μM, control 517",251^8)
same,inhibition of colony formation (colony growth inhibition),[1]; 5 μM,11%
same,inhibition of colony formation (colony growth inhibition),[1]; 10 μM,19%
same,inhibition of colony formation (colony growth inhibition),[1]; 20 μM,39%
same,"repeated exposure compared with single exposure, colony formation (in words)",[1]; twofold vs single ASO exposure,no increased inhibition of colony formation as compared with single exposure
same,X-ray scan of hind legs: lytic lesions (in words),[2]; eight weeks after tumor cell implantation,"clear increase of lytic lesions in the tibia, however new formation of bone tissue at the edges of the lesions"
same,X-ray scan of hind legs: lytic lesions (in words),"[2]; four weeks after tumor cell implantation, therapy from implantation",small lytic lesions in the tibia
same,X-ray scan of hind legs: lytic lesions (in words),[2]; six weeks after tumor cell implantation,visible lytic lesions in the tibia
same,X-ray scan of hind legs: lytic lesions (in words),[2]; ten weeks after tumor cell implantation,lytic lesions are no longer visible in the region of the tibia
same,animals that did not develop metastases,"[2]; mini-osmotic pumps, 12 weeks",one animal out of the five
same,T/C,"[2]; mini-osmotic pumps, week 4",39%
same,T/C,"[2]; mini-osmotic pumps, week 12",2%
same,T/C × 100,[2]; week 4,39
same,Mean size of lesion,"[2]; week 4, mini-osmotic pumps",13 R.U.
same,Size of lesion (per animal),"[2]; week 4, mini-osmotic pumps",11 R.U. and 0 R.U. and 32 R.U. and 8 R.U. and 23 R.U.
same,Incidence of metastasis,[2]; week 4,4/5
same,T/C × 100,[2]; week 6,18
same,Mean size of lesion,"[2]; week 6, mini-osmotic pumps",32 R.U.
same,Size of lesion (per animal),"[2]; week 6, mini-osmotic pumps",39 R.U. and 0 R.U. (2×) and 83 R.U. and 37 R.U.
same,Incidence of metastasis,[2]; week 6,3/5
same,T/C × 100,[2]; week 8,11
same,Mean size of lesion,"[2]; week 8, mini-osmotic pumps",29 R.U.
same,Size of lesion (per animal),"[2]; week 8, mini-osmotic pumps",52 R.U. and 0 R.U. (2×) and 50 R.U. and 43 R.U.
same,Incidence of metastasis,[2]; week 8,3/5
same,T/C × 100,[2]; week 9,7
same,Mean size of lesion,"[2]; week 9, mini-osmotic pumps",28 R.U.
same,Size of lesion (per animal),"[2]; week 9, mini-osmotic pumps",28 R.U. and 0 R.U. (2×) and 36 R.U. and 78 R.U.
same,Incidence of metastasis,[2]; week 9,3/5
same,T/C × 100,[2]; week 10,5
same,Mean size of lesion,"[2]; week 10, mini-osmotic pumps",20 R.U.
same,Size of lesion (per animal),"[2]; week 10, mini-osmotic pumps",17 R.U. and 0 R.U. (2×) and 29 R.U. and 52 R.U.
same,Incidence of metastasis,[2]; week 10,3/5
same,T/C × 100,[2]; week 12,2
same,Mean size of lesion,"[2]; week 12, mini-osmotic pumps",9 R.U.
same,Size of lesion (per animal),"[2]; week 12, mini-osmotic pumps",0 R.U. (3×) and 18 R.U. and 29 R.U.
same,Incidence of metastasis,[2]; week 12,2/5
same,T/C × 100,[3]; 4 weeks,1.6
same,T/C × 100,[3]; 6 weeks,2.9
same,T/C × 100,[3]; 8 weeks,9.1
same,X-ray scan of hind legs: osteolytic lesions (in words),"[3]; FIG. 3 and FIG. 4, one rat each, cells pre-exposed",a minute osteolytic lesion in the tibia only; also recorded: a small lesion in the tibia
same,rats in which formation of osteolytic metastasis was inhibited (no visible metastasis),[3],two out of four
same,rats in which formation of osteolytic metastasis was inhibited (no visible metastasis),[3]; listed as ASO-BSPII-06,two of four and 2 of 4
same,Incidence of metastasis,[3]; observation period 4 weeks,1/4
same,Mean size of lesion,"[3]; observation period 4 weeks, pretreated cells",3.5 R.U.
same,Incidence of metastasis,[3]; observation period 6 weeks,1/4
same,Mean size of lesion,"[3]; observation period 6 weeks, pretreated cells",8.8 R.U.
same,Incidence of metastasis,[3]; observation period 8 weeks,2/4
same,Mean size of lesion,[3]; [4],31.5 R.U.
same,Size of lesion (per animal),[3]; [4],106^5) R.U.
same,T/C % (mean lesion size compared to untreated control),[3]; [5],9.1%
same,lesion size of individual animal compared to the untreated control,[3]; [5],about 30% and 6%
same,animals in which formation of lytic metastases was prevented,[3]; [6],three out of four
same,lesion size of individual animal compared to the untreated control,[3]; [6],6.4%
same,lesion size of individual animal compared to the untreated control,"[3]; pretreated cells, after six weeks",about 12%
same,lesion size of the rat(s) that developed lytic metastasis,"[3]; pretreated cells, week 4",14 R.U.
same,"lesion size of the rat(s) that developed lytic metastasis, % of control","[3]; pretreated cells, week 4, vs mean of the two control groups (197 R.U.)",7%
same,lesion size of the rat(s) that developed lytic metastasis,"[3]; pretreated cells, week 8",63 R.U.
same,"lesion size of the rat(s) that developed lytic metastasis, % of control","[3]; pretreated cells, week 8, vs mean of the two control groups (416 R.U.)",15%
